Measured values as given in article PMC12615485, “New dengue virus inhibitors targeting NS3-NS5 interaction identified by in silico screening” (Frontiers in Microbiology, 2025).
Where two headings read alike, the source gives them in different places.

Columns and labels:
[1] = target: NS3-NS5 interaction (NS3 f.l. binding to coated 6His-NS5_270–900) (Dengue virus type 2, UniProt P14340); test: ELISA-based NS3-NS5 interaction assay; design: species or system DENV-2; details: for IC50: read-out: In vitro activity IC50; for reduction of NS3-NS5 interaction: at the tested concentrations; for inhibition at 100 µM: fixed concentration of 100 μM, compared with DMSO control
Experimental: Nunc Maxisorp microplates (Thermo Fisher Scientific) were coated with 400 ng/well of 6His-NS5_270–900, or GST protein as a control, in PBS for 3 h at 37 °C and then blocked with 5% (wt/v) bovine serum albumin (BSA, Merck Life Science) in PBS overnight at 4 °C. Blocked wells were incubated at room temperature (RT) for 2 h with increasing amounts of NS3 f.l. or GST–NS3_172–618. 6His-NS5_270–900-coated plates were also incubated with increasing concentration of GST, as a control. After washing with PBS containing 0.3% Tween 20 (Fisher Scientific, Waltham, MA, United States), the NS3-NS5 interaction was detected by incubating the plates with the anti-NS3 monoclonal antibody (GT2811 clone, Genetex, Irvine, CA, United States) diluted 1:6,000 in PBS + 2% (v/v) FBS (Thermo Fisher Scientific) for 1 h at RT. The unbound primary antibody was removed by further washes with PBS + 0.3% Tween 20 and the secondary goat anti-mouse HRP-conjugated antibody (GenScript Biotech) at a dilution of 1:8,000 in PBS + 2% FBS was then added. After incubation for 1 h at RT and following washes, the colorimetric substrate 3,3′,5,5′-tetramethylbenzidine (TMB, SeraCare Life Sciences, Milford, MA, United States) was added to each well and absorbance was read at 450 nm by an ELISA plate reader (Tecan Infinite 200 PRO, Mannedorf, Switzerland).
To test the inhibitory effect of compounds on NS3-NS5 interaction, 6His-NS5_270–900-coated wells were incubated with a fixed amount of NS3 f.l. (200 ng) along with increasing concentrations of test compounds or DMSO as a control. To exclude non-specific inhibition of compounds due to colloidal aggregation, the inhibitory activities of compounds were tested in the presence or the absence of 0.002% Triton X-100 (Fisher Scientific), a condition which reverses and prevents the colloidal formation of organic molecules ([McGovern et al., 2003]). All the compound concentrations were tested at least in duplicate.

[2] = tested on: DENV-2 NGC strain; test: Plaque reduction assay (PRA) in Vero cells; type: cell-based; details: for EC50: PRA in Vero cells, read-out: Antiviral activity EC50; for SI (selectivity index): ratio between CC50 and EC50
[3] = tested on: Vero cells
[4] = MTT cytotoxicity assay; details: African green monkey, Vero cells
[5] = analogues of hit 3, in-house synthesized hit 3 as control, 50% inhibition of NS3-NS5 binding in ELISA
[6] = selected hits, concentration that decreased the NS3-NS5 binding by 50% in ELISA
[7] = Dengue virus, DENV2, Vero, selected hits, 50% inhibition of viral plaque formation, DENV-2

Structure (SMILES)	IC50 [1, 5] [µM]	inhibition at 100 µM [1] [%]	IC50 [1, 6] [µM]	EC50 [2, 7] [µM]	SI (selectivity index) ([2]; selected hits)	CC50 at 72 h [4] [µM]	other results
CN(C)c1ccc(NC(=S)NNC(=O)c2cccs2)cc1 [Compound 70]	25.3 ± 5.4						
CN(C)c1ccc(NC(=S)NNC(=O)c2ccco2)cc1 [Compound 71]	11.6 ± 2.6						
Cc1ccc(NC(=S)NNC(=O)c2ccc(C(C)(C)C)cc2)cc1 [Compound 72]							EC50 ([2]; best analogues of hit 3, in-house synthesized hit 3 as control, NGC strain): 2.8 ± 1.9 µM; CC50 [3]: 211 ± 20 µM
Cc1ccc(NC(=S)NNC(=O)c2ccc(C(F)(F)F)cc2C(F)(F)F)cc1 [Compound 73]	> 200						reduction of NS3-NS5 interaction [1]: < 50%
COc1ccc(NC(=S)NNC(=O)c2ccccc2O)cc1 [Compound 74]	> 200						reduction of NS3-NS5 interaction [1]: < 50%
N#Cc1ccc(NC(=S)NNC(=O)c2ccccc2O)cc1 [Compound 75]	40.3 ± 8.3						
CC(C)(C)c1ccc(NC(=S)NNC(=O)c2ccccc2O)cc1 [Compound 76]	6.3 ± 2.2						
Cc1ccc(NC(=S)NNC(=O)c2ccc(C#N)cc2)cc1 [Compound 77]	> 200						reduction of NS3-NS5 interaction [1]: < 50%
Cc1ccc(Nc2nc(-c3ccccc3O)cs2)cc1 [Compound 78]	> 200						reduction of NS3-NS5 interaction [1]: < 50%
Cc1ccc(NC(=O)NNC(=O)c2ccccc2O)cc1 [Compound 79]	13.9 ± 6.5						
O=C(NCc1nc2ccccc2[nH]1)c1ccc2[nH]nnc2c1 [Hit 1]		≥ 50	85.9 ± 14.5	> 100	>3	> 250	
Cc1ccc(C(=O)Nc2cc(-c3cccc(F)c3F)n[nH]2)c(=O)[nH]1 [Hit 4]		≥ 50	18.7 ± 2.1	> 10	1	12.7 ± 4	
Cc1nc(NC(=O)c2ccc(C(N)=O)cc2)sc1SCC#N [Hit 6]		≥ 50	51.4 ± 10.3	98.8 ± 10.4	>3	> 250	
N=c1c2cnn(-c3ccccc3)c2ncn1NC(=S)Nc1ccccc1 [Hit 15]		≥ 50	123 ± 16	> 100	>3	> 250	
NC(=O)COc1ccc(CNC(=O)Nc2ccc(Cl)cc2)cc1 [Hit 29]		≥ 50	142 ± 26	34.3 ± 9.4	1	35.7 ± 4.9	
O=C(NCc1ncc(-c2ccccc2)[nH]1)Nc1ccncc1F [Hit 30]		≥ 50	44.6 ± 8.1	24.6 ± 5.9		> 250	
O=C(CCc1ccccn1)Nc1ccc2[nH]nnc2c1 [Hit 44]		≥ 50	78.5 ± 16.4	97.4 ± 12.6	>1	> 100	
N#Cc1nc2c(-c3nc4ccccc4[nH]3)c(N)n(Cc3ccco3)c2nc1C#N [Hit 47]		≥ 50	16.9 ± 2.5	53.5 ± 6.9	>5	> 250	
N#Cc1cn[nH]c1NCc1ccc(OCc2ccccc2)cc1O [Hit 50]		≥ 50	32 ± 6.7	13.4 ± 1.8	>19	> 250	
CC(C)C[C@H](NC(=O)[C@H](C)NC(=O)[C@H](CC(C)C)NC(=O)[C@@H](NC(=O)[C@H](CCC(N)=O)NC(=O)[C@@H](NC(=O)[C@H](CCC(=O)O)NC(=O)[C@H](CCC(=O)O)NC(=O)CNC(=O)[C@H](CCC(=O)O)NC(=O)[C@H](CCCCN)NC(=O)[C@H](Cc1c[nH]c2ccccc12)NC(=O)[C@H](CCC(=O)O)NC(=O)CNC(=O)[C@@H](N)CCC(=O)O)C(C)C)C(C)C)C(=O)O [NS3_86–100 peptide, reference compound]							inhibitory effect on NS3-NS5 interaction ([1]; up to 480 μM): no inhibitory effect
